Source: US20200299251A1, “FURAN SKELETON-CONTAINING IMINOGUANIDINE DERIVATIVE AS WELL AS PREPARATION AND APPLICATION THEREOF” (SUN YAT-SEN UNIVERSITY, priority 2017, published 2020)
Each block holds one compound with its values, some of them ahead of it.

How the values were obtained:
[1] = Release of H2O and CO2 by heating in watch glass under normal pressure (weight loss); assay type: physicochemical
Procedure: The weight-lost solid was dissolved into water, carbon dioxide gas was introduced, and the above substances were stirred for lh to separate out a yellow solid.
The weight was 2.6 g, and weight loss was 29.7%. The weight-lost solid was dissolved into water, carbon dioxide gas was introduced, and the above substances were stirred for 1 h to separate out a yellow solid.
The weight was 2.46 g, and weight loss was 33.7%. The weight-lost solid was dissolved into water, carbon dioxide gas was introduced, and the above substances were stirred for lh to separate out a yellow solid.
The weight was 2.45 g, and weight loss was 33.7%. The weight-lost solid was dissolved into water, carbon dioxide gas was introduced, and the above substances were stirred for lh to separate out a yellow solid.

[2] = assay type: physicochemical
[3] = Differential scanning calorimetric experiment; assay type: physicochemical; details: 30-200° C., 10 K/min
[4] = Water solubility of FuBIG salts, UV absorbance of saturated aqueous solutions; details: saturated aqueous solution, UV absorbance at 368 nm
Procedure: The absorbance of the above concentration gradients was determined under this wavelength, and standard curves were plotted to obtain a curve equation Y=14705×−0.0825 (as shown in FIG. 13B).
It was known that the pKa of HCO3^− was 10.32.

[5] = Equilibrium constants and enthalpy changes of the process of absorbing and releasing carbon dioxide; assay type: physicochemical
[6] = Thermogravimetry infrared experiment; assay type: physicochemical; details: 10 K/min
Procedure: The temperature range was 25-800° C., and the heating rate was 10 K/min. […] It can be seen from FIG. 9B that this molecule can release water molecules and carbon dioxide molecules under the heating condition, and water molecules and carbon dioxide molecules are nearly released at the same time.

[7] = Determination of pKa by pH titration with NaOH; assay type: physicochemical
Procedure: 0.077 g of FUBIG hydrochloride and 0.585 g of NaCl were weighed, the volume was metered to 50 mL with ultrapure water, and 26 μL of HCl (36%) was dropwise added. The mixed solution was stirred at 25° C. until the temperature was stabilized. The pH meter was calibrated respectively using potassium hydrogen phthalate (pH 4.00) buffer, mixed phosphate buffer (pH 6.86), sodium tetraborate buffer (pH 9.18), and then titration was conducted with 0.1M NaOH solution. After each titration, the system was stabilized after waiting for 7min, and then the next titration was conducted. The volume and pH value of each titration were recorded.
Plot was made according to the ph-V (mL). […] The same method was used to obtain: 15° C., pKa1=7.79, pKa2=8.90; at 20° C., pKa1=7.68, pKa2=8.82; at 30° C., pKa1=7.49, pKa2=8.66; at 35° C., pKa1=7.31, pKa2=8.59 (as shown in Table 3).

Compound: N=C(N)NN=Cc1ccc(C=NNC(=N)N)o1.O.O.O.O.O=C(O)O
weight loss ([1]; heated for 5 h at 100° C.): 33.6% | weight loss ([1]; heated for 12 h at 70° C.): 29.7% | weight loss ([1]; heated for 12 h at 120° C.): 33.7% | weight loss ([1]; heated for 12 h at 180° C.): 33.7% | pH of saturated aqueous solution ([2]; pH meter): 8.48 | concentration of carbonate ion [CO3^2−] in the saturated solution ([2]; saturated aqueous solution, pH 8.48): 1.3(3)×10^−4 M | temperature range of release of carbon dioxide and water (DSC) [3]: 97.89-109.13 °C | Solubility(FuBIG cation concentration, M) [4]: 9.3 (4)×10^−3 M | Enthalpy change ΔH ([5]; FuBIGH2(CO3)(H2O)4 precipitate): -24.276 kcal/mol | Equilibrium constant K ([5]; FuBIGH2(CO3)(H2O)4 precipitate): 1.63 × 10^7 | temperature at which the weight loss rate is the maximum ([6]; 25-800° C.): 100 °C | temperature at which water and carbon dioxide molecules are completely lost ([6]; 25-800° C.): 165 °C | weight loss ([6]; at 165° C.): 36.31%

Compound: Cl.N=C(N)NN=Cc1ccc(C=NNC(=N)N)o1
Solubility(FuBIG cation concentration, M) [4]: 0.74 (6) M

Compound: N=C(N)NN=Cc1ccc(C=NNC(=N)N)o1.O.O.O=[N+]([O-])O.O=[N+]([O-])O
Solubility(FuBIG cation concentration, M) [4]: 3.3 (2)×10^−2 M

Now from value to compound:

Solubility(FuBIG cation concentration, M) [4]: 1.4 (2)×10^−3 M
Compound: N=C(N)NN=Cc1ccc(C=NNC(=N)N)o1.O=S(O)O

pKa1 ([7]; 15° C.): 7.79 | pKa2 ([7]; 15° C.): 8.90 | pKa1 ([7]; 20° C.): 7.68 | pKa2 ([7]; 20° C.): 8.82 | pKa1 ([7]; 25° C.): 7.57 | pKa2 ([7]; 25° C.): 8.71 | pKa1 ([7]; 30° C.): 7.49 | pKa2 ([7]; 30° C.): 8.66 | pKa1 ([7]; 35° C.): 7.31 | pKa2 ([7]; 35° C.): 8.59 | Enthalpy change ΔH ([5]; FuBIG dissolution): 11.76 kcal/mol | Equilibrium constant K ([5]; FuBIG dissolution): 4.03 × 10^−1 | Enthalpy change ΔH ([5]; FuBIG protonation): 11.01 kcal/mol | Equilibrium constant K ([5]; FuBIG protonation): 1.91 × 10^−12 | Enthalpy change ΔH ([5]; Total CO2 absorbing process): -27.75 kcal/mol | Equilibrium constant K ([5]; Total CO2 absorbing process): 5.97 × 10^4 | Enthalpy change ΔH ([5]; Total CO2 releasing process): 50.026 kcal/mol | melting point: 244 to 246 °C
Compound: N=C(N)N/N=C/c1ccc(/C=N/NC(=N)N)o1 [FuBIG]
